Reference: patent US20250057864A1, “COMPOSITION FOR IMPROVING EXERCISE PERFORMANCE COMPRISING GYPENOSIDE COMPOUND AS ACTIVE INGREDIENT” (BTC CORPORATION, priority 2022, published 2025)

Experiments:
[1] = test system: soleus muscle (SOL); assay: mRNA expression in soleus muscle (SOL), real-time RT-PCR; assay type: in vivo, ICR mice
Procedure: After an acclimatization period of 1 week, healthy animals were selected and divided into 6 groups according to the randomized block design. The animals were divided into (G1) a non-exercise control group, (G2) a non-exercise+7 mg/kg body weight (BW) Example 1 group, (G3) a non-exercise+7 mg/kg BW Example 2 group, (G4) a non-exercise+7 mg/kg BW Example 3 group, (G5) a non-exercise+7 mg/kg BW Example 4 group, (G6) an exercise control group, (G7) an exercise+7 mg/kg BW Example 1 group, (G8) an exercise+7 mg/kg BW Example 2 group, (G9) an exercise+7 mg/kg BW Example 3 group, (G10) an exercise+7 mg/kg BW Example 4 group, and (G11) an exercise+75 mg/kg BW Cr dose group. Each test group consisted of 10 animals.
Total RNA was isolated from the muscle tissue (SOL) collected at the end of the test using a TRizol reagent (Thermo Fisher Scientific), and quantified using a micro-volume spectrophotometer (BioSpec-nano, Shimadzu). RNAs with OD260/280 values above 1.8 were used for experiment. After obtaining cDNA from the total RNA (2 μg) using a HyperScript™ RT master mix kit (GeneAll Biotechnology), real-time PCR was performed using a Rotor-Gene 300 PCR kit (Corbett Research) and a Rotor-Gene™ SYBR Green kit (QIAGEN). Quantitative analysis of the gene expression was performed using the Rotor-Gene 6000 Series System Software program (Corbett Research).
Muscle can be classified into slow muscle and fast muscle depending on the physiological rate of contraction. […] Therefore, the effect of endurance exercise training and the administration of the test substances on the expression of antioxidant-related genes (SOD2, GPx1, UCP2, UCP3), LDH-related genes (ERRα, LDH B, MCT1), mitochondrial synthesis-related genes (Tfam, CPT-1β, mtDNA, NRF1) and energy metabolism-related genes (PGC-1α, GYS, PPARγ, PPARδ) in the soleus muscle, which is a slow muscle, was investigated.

[2] = test system: p-AMPK, p-Sirt1, p-p38, p-Nrf2 in C2C12 cells; assay: Western blot of proteins related with PGC-1α activation in C2C12 cells; assay type: cell-based, mice; conditions: C2C12, 0.36 μg/mL (Cr 5 μg/mL); for Protein expression level p-AMPK / Protein expression level p-Nrf2 / Protein expression level p-Sirt1 / Protein expression level p-p38: 7 days; for p-AMPK/AMPK ratio / p-Nrf2/Nrf2 ratio / p-Sirt1/Sirt1 ratio / p-p38/p38 ratio: control G1 = 1.00
Procedure: C2C12 cells were dispensed into a 6-well plate at 2×10^5 cells/well and stabilized for 24 hours. In order to investigate the effect of each test substance on muscle cell differentiation, each test substance was added to the myocyte differentiation medium. The cells were cultured for 4 days (mRNA analysis) or 7 days (protein analysis) after exchanging the cell culture medium with the myocyte differentiation medium treated with each test substance, as shown in Table 2.
C2C12 cells were dispensed into a 6-well plate at 2×10^5 cells/well and stabilized for 24 hours. The cells were cultured for 7 days after exchanging the culture medium with a myocyte differentiation medium containing the test substance. After the induction of differentiation for 7 days, the cells were homogenized by adding a lysis buffer (20 mmol/L HEPES, pH 7.5, 150 mmol/L NaCl, 1% Triton X-100, 1 mmol/L EDTA, 1 mmol/L EGTA, 100 mmol/L NaF, 10 mmol/L sodium pyrophosphate, 1 mmol/L Na3VO4, 20 μg/mL aprotinin, 10 μg/mL antipain, 10 μg/mL leupeptin, 80 μg/mL benzamidine HCl, 0.2 mmol/L PMSF) and a total cell lysate was obtained through centrifugation. The protein quantity of the total cell lysate was measured using a BCA protein assay kit (Thermo Scientific). The total cell lysate (50 μg) was separated by 10% sodium dodecyl sulfate polyacrylamide gel electrophoresis (SDS-PAGE) and then transferred to a polyvinylidene difluoride membrane (Milipore). The membrane was blocked for 1 hour in 5% skim milk-TBST (20 mmol/L Tris·HCl, pH 7.5, 150 mmol/L NaCl, 0.1% Tween 20) and then incubated for 16 hours at 4° C. or for 1 hour at room temperature after adding antibodies. Thereafter, horseradish peroxidase (HRP)-linked anti-rabbit IgG or HRP-linked anti-mouse IgG was added and the mixture was stirred for 1 hour. The detected protein bands were visualized by enhanced chemiluminescence using a Luminata™ Forte Western HRP substrate (Millipore). The level of protein expression was quantified using the ImageQuant™ LAS 500 imaging system (GE Healthcare Bio-Sciences AB).
The result of western blot analysis conducted using the total cell lysate obtained by treating with the test substance to investigate the effect of the test substance on the changes in proteins associated with PGC-1α activation is shown in Table 6.
Based on the western blot analysis result, the activity of each protein was evaluated from the ratio of activation.

[3] = test system: ICR mice; assay: Weight-loaded forced swimming test, time to exhaustion; assay type: in vivo; conditions: forced swimming with 5% BW load, day 14, oral 7 mg/kg BW
Procedure: After an acclimatization period of 1 week, healthy animals were selected and divided into 6 groups of 10 mice per group according to the randomized block design. A normal control group was orally administered with 5% Tween 80-saline, and a composition was orally administered with Creatine monohydrate (Cr) at 75 mg/kg body weight (BW). Test groups (G2 to G5) were orally administered the compositions of Examples 1 to 4 dissolved in drinking water to 7 mg/kg body weight (BW) at regular times for 17 days. Throughout the test period, the experimental animals were given free access to solid feed for experimental animals (Cargill Agri Puna) and drinking water.
Weight-loaded forced swimming test was performed for the experimental animals as follows. A plastic pool (90×45×45 cm) was filled with water at the depth of 35 cm and the temperature of the water was maintained at 25±1° C. After attaching a weight (5% of the body weight of the experimental animal) to the tail, the experimental animal was forced to swim in the pool.
On days 10 and 12 after the administration of the test substance, swimming adaptation exercise was given twice for 15 minutes each. Two days after the final swimming adaptation exercise (on day 14 after the administration of the test substance), forced swim test was performed after fasting the experimental animal for 16 hour, and the time until exhaustion was measured. […]

[4] = SOL muscle, treadmill exercise, 7 mg/kg BW (Cr 75 mg/kg BW), G1 = 1.00
[5] = SOL muscle, non-exercise, 7 mg/kg BW, G1 = 1.00

CN(CC(=O)O)C(=N)N.O [Cr, Creatine monohydrate, reference compound]
mRNA expression CPT-1β [1, 4]: 0.95 ± 0.28^++ | mRNA expression ERRα [1, 4]: 0.58 ± 0.19^+ | mRNA expression GPx1 [1, 4]: 1.92 ± 0.29^+ | mRNA expression GSY [1, 4]: 0.92 ± 0.31 | mRNA expression LDH B [1, 4]: 0.35 ± 0.11^+ | mRNA expression MCT1 [1, 4]: 0.99 ± 0.31^++ | mRNA expression NRF1 [1, 4]: 9.17 ± 2.18 | mRNA expression PGC1α [1, 4]: 5.09 ± 1.22^+ | mRNA expression PPARγ [1, 4]: 0.29 ± 0.05 | mRNA expression PPARδ [1, 4]: 3.82 ± 0.90^++ | mRNA expression SOD2 [1, 4]: 1.52 ± 0.08^+ | mRNA expression Tfam [1, 4]: 1.34 ± 0.07^ | mRNA expression UCP2 [1, 4]: 14.96 ± 1.96^+++ | mRNA expression UCP3 [1, 4]: 0.87 ± 0.22 | mRNA expression mtDNA [1, 4]: 1.69 ± 0.20^ | Protein expression level p-AMPK [2]: 104.6 ± 14.4 % of control group | Protein expression level p-Nrf2 [2]: 116.2 ± 11.4 % of control group | Protein expression level p-Sirt1 [2]: 114.0 ± 11.1 % of control group | Protein expression level p-p38 [2]: 151.5 ± 41.0 % of control group | p-AMPK/AMPK ratio [2]: 1.09 ± 0.13 | p-Nrf2/Nrf2 ratio [2]: 1.20 ± 0.26 | p-Sirt1/Sirt1 ratio [2]: 1.11 ± 0.10 | p-p38/p38 ratio [2]: 1.15 ± 0.29

CC(C)=CCC[C@](C)(O)C1CC[C@]2(C)C1[C@H](O)CC1[C@@]3(C)C[C@@H](O)C(OC4OC(CO)C(O)C(O)C4OC4OC(CO)C(O)C(O)C4O)C(C)(C)C3CC[C@]12C (some centres unmarked) [Example 1, Gypenoside L]
mRNA expression CPT-1β ([1]; 7 mg/kg): 0.86 ± 0.04^++ | mRNA expression ERRα ([1]; 7 mg/kg): 1.41 ± 0.22 | mRNA expression GPx1 ([1]; 7 mg/kg): 3.28 ± 0.36^++ | mRNA expression GSY ([1]; 7 mg/kg): 0.27 ± 0.06 | mRNA expression LDH B ([1]; 7 mg/kg): 1.26 ± 0.46 | mRNA expression MCT1 ([1]; 7 mg/kg): 0.56 ± 0.25^+ | mRNA expression NRF1 ([1]; 7 mg/kg): 29.20 ± 3.10^++ | mRNA expression PGC1α ([1]; 7 mg/kg): 2.73 ± 0.51 | mRNA expression PPARγ ([1]; 7 mg/kg): 5.82 ± 1.27^+ | mRNA expression PPARδ ([1]; 7 mg/kg): 2.42 ± 0.45^+ | mRNA expression SOD2 ([1]; 7 mg/kg): 1.47 ± 0.13^+ | mRNA expression Tfam ([1]; 7 mg/kg): 1.98 ± 0.42^+ | mRNA expression UCP2 ([1]; 7 mg/kg): 6.91 ± 1.47^++ | mRNA expression UCP3 ([1]; 7 mg/kg): 0.64 ± 0.10 | mRNA expression CPT-1β [1, 5]: 0.34 ± 0.02 | mRNA expression ERRα [1, 5]: 1.67 ± 0.22 | mRNA expression GPx1 [1, 5]: 0.89 ± 0.10 | mRNA expression GSY [1, 5]: 2.60 ± 0.51 | mRNA expression LDH B [1, 5]: 1.76 ± 0.49 | mRNA expression MCT1 [1, 5]: 0.41 ± 0.03 | mRNA expression NRF1 [1, 5]: 15.52 ± 2.59 | mRNA expression PGC1α [1, 5]: 0.88 ± 0.08 | mRNA expression PPARγ [1, 5]: 0.25 ± 0.00 | mRNA expression PPARδ [1, 5]: 2.87 ± 0.95 | mRNA expression SOD2 [1, 5]: 1.16 ± 0.03 | mRNA expression Tfam [1, 5]: 4.74 ± 0.32 | mRNA expression UCP2 [1, 5]: 1.23 ± 0.05 | mRNA expression UCP3 [1, 5]: 0.51 ± 0.09 | mRNA expression mtDNA [1, 5]: 1.29 ± 0.12 | mRNA expression mtDNA [1, 4]: 4.66 ± 0.64^++ | Time to exhaustion [3]: 1193.4 ± 176.8 s | Protein expression level p-AMPK [2]: 117.7 ± 7.2 % of control group | Protein expression level p-Nrf2 [2]: 135.1 ± 1.6 % of control group | Protein expression level p-Sirt1 [2]: 143.4 ± 5.6 % of control group | Protein expression level p-p38 [2]: 133.1 ± 7.1 % of control group | p-AMPK/AMPK ratio [2]: 1.27 ± 0.25 | p-Nrf2/Nrf2 ratio [2]: 1.50 ± 0.11 | p-Sirt1/Sirt1 ratio [2]: 1.38 ± 0.06 | p-p38/p38 ratio [2]: 1.27 ± 0.07
